For data set [1], the target named is T1, Lysine-specific histone demethylase 1A (Homo sapiens, UniProt O60341). Put plainly: Inhibition of LSD1 (unknown origin).
The target of data set [2] is T1, Lysine-specific histone demethylase 1A. Put plainly: Inhibition of LSD1 in human THP1 cells assessed as induction of CD11b expression after 4 days by LIVE/DEAD violet staining based FACS analysis. (In general: A flow cytometer gives signals particle by particle.)
A further data set deals with hERG (KCNH2) (Homo sapiens, UniProt Q12809). Put plainly: Inhibition of human ERG at 10 uM relative to control.
The nature of data set [3]: AUC (0 to 6 hrs) in CD-1 mouse at 10 mg/kg, po. The format is ADME, organism-based. Also on record: dose 10 mg/kg, time < 6 hr, route oral. Conditions: in vivo; call rule not given here.
For data set [4], the target named is T2, Amine oxidase [flavin-containing] A (Homo sapiens, UniProt P21397).
T2 sequence (P21397 whole entry): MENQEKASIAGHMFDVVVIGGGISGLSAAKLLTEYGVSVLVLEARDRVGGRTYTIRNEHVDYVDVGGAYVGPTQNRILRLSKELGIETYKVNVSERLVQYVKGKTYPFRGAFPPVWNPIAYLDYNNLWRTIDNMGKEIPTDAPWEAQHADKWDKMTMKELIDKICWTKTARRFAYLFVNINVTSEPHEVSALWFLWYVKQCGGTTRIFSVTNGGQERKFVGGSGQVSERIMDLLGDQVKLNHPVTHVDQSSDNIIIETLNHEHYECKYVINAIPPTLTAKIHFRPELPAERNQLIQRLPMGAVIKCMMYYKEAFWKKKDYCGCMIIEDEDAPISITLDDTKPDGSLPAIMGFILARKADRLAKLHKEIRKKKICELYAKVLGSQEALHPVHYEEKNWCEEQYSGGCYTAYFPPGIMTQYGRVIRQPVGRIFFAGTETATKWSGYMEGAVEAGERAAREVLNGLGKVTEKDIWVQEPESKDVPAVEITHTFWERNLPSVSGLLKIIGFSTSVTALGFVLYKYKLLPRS
Put plainly: Inhibition of MAOA (unknown origin) at >20 uM.

For data set [5], the target named is T3, Amine oxidase [flavin-containing] B (Homo sapiens, UniProt P27338).
T3 sequence (P27338 whole entry): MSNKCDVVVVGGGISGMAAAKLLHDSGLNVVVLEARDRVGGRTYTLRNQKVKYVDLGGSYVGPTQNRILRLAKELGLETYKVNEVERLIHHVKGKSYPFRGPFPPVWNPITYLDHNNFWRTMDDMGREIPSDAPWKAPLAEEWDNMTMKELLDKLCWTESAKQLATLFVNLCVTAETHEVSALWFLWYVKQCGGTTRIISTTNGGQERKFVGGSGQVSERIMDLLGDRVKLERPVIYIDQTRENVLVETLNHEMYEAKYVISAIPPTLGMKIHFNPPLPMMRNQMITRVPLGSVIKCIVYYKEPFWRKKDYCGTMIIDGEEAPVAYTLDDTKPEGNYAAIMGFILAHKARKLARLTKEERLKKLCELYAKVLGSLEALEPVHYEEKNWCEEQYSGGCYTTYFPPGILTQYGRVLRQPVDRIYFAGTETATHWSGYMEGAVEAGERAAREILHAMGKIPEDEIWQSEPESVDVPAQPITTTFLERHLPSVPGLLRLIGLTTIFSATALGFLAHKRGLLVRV
Kind of data set: Inhibition of MAOB (unknown origin) at >20 uM.

The text below walks through data of ChEMBL document CHEMBL4308861, “Structure-based design and discovery of potent and selective lysine-specific demethylase 1 (LSD1) inhibitors” (Bioorg Med Chem Lett, 2019).

SMILES strings stand for the structures. A value given as a limit tells only on which side of the number the result lay.

Sequence of hERG (KCNH2) (Q12809 whole entry): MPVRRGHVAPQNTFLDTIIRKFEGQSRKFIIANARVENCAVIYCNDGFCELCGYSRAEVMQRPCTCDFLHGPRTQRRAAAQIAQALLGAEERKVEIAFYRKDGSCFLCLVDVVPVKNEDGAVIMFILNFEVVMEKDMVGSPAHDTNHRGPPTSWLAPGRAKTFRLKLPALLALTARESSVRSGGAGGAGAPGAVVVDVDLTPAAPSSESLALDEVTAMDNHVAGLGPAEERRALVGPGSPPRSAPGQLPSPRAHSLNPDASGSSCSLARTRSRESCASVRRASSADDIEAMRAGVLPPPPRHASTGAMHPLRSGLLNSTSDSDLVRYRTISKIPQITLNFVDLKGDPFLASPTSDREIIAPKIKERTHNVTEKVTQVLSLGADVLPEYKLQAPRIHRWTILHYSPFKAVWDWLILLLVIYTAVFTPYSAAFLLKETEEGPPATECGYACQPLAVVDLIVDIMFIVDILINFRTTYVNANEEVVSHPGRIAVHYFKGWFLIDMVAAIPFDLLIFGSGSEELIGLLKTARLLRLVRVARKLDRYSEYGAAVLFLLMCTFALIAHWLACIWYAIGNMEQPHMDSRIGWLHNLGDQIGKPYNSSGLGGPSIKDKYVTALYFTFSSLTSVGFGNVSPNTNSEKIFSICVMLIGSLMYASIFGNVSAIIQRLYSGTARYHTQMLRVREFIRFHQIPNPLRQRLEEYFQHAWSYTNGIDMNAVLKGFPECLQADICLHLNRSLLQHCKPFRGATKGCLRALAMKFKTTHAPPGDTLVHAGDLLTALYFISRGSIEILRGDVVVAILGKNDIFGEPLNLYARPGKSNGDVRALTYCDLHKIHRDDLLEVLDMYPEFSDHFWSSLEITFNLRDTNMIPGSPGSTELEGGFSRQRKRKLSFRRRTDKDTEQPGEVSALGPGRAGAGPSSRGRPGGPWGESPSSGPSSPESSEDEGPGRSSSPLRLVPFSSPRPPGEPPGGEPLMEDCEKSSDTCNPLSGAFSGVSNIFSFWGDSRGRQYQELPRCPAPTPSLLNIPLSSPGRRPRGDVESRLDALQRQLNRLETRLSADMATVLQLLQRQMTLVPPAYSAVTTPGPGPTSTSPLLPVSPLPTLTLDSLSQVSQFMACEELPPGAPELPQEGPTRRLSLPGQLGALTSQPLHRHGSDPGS

Turning to `Cc1ccc(-c2ncc(OC[C@@H]3CCNC3)cc2-c2ccc(C#N)cc2)cc1`, in data set [1], it took 10 nM to reach half-maximal inhibition (IC50). The EC50 – broadly, the concentration needed to bring the measured effect to its halfway point – in data set [2] was found to be 62 nM. Also, testing at 10 µM at hERG (KCNH2) gave an inhibition of 90%.

With `COc1ccc(-n2c(-c3ccc(C#N)c(F)c3)nc(C(=O)N3CCC[C@@H](N)C3)c2C)cc1F`, on hERG (KCNH2), at 10 µM the inhibition was 30%.

As to `CN[C@H]1CCN(C(=O)c2nc(-c3ccc(C#N)c(F)c3)n(-c3ccc4nn(C)c(Cl)c4c3)c2C)C1`, the inhibition (usually the relative decrease from the control value, in per cent) at 10 µM against hERG (KCNH2) came out at 24%. The AUC(0-t) – broadly, the area under the concentration-time curve up to a stated or last time point – at 6 h in data set [3] turned out to be 640 ng·h/mL. Further, the “inhibition (INH)” value in data set [4] and in data set [5] was “Active” in each case.

In turn, `COc1ccc(-n2c(-c3ccc(C#N)c(F)c3)nc(C(=O)N3CCC[C@@H](N)C3)c2C)cc1` registered an inhibition at 10 µM on hERG (KCNH2) of 69%.

`Cc1c(C(=O)N2CCC[C@@H](N)C2)nc(-c2ccc(C#N)c(F)c2)n1-c1ccc2c(cnn2C)c1` gave an inhibition at 10 µM on hERG (KCNH2) of 52%. This compound also showed an AUC(0-t) at 6 h in data set [3] of 106 ng·h/mL.

In turn, `COc1ccc(-n2c(-c3ccc(C#N)c(F)c3)nc(C(=O)N[C@@H]3CCCNC3)c2C)cc1F` had an inhibition at 10 µM at hERG (KCNH2) of 65%.

In turn, `Cc1c(C(=O)N2CCC[C@@H](N)C2)nc(-c2ccc(C#N)c(F)c2)n1-c1ccc2nn(C)c(Cl)c2c1` gave an inhibition at 10 µM at hERG (KCNH2) of 28%. In addition, the area under the curve AUC(0-t) at 6 h in data set [3] was determined as 100 ng·h/mL. In addition, the “inhibition (INH)” value in data set [4] and in data set [5] was “Active” throughout.

For `Cc1c(C(=O)N2CC[C@H](N(C)C)C2)nc(-c2ccc(C#N)c(F)c2)n1-c1cc2cn(C)nc2cc1F`, 10 µM produced 44% inhibition on hERG (KCNH2). The compound also returned an AUC(0-t) at 6 h in data set [3] of 940 ng·h/mL. The “inhibition (INH)” value in data set [4] and in data set [5] was “Active” in each case.

In the case of `COc1ccc(-n2c(-c3ccc(C#N)c(F)c3)nc(C(=O)N3CC[C@H](N)C3)c2C)cc1F`, at hERG (KCNH2), the inhibition at 10 µM amounted to 41%.

Turning to `Cc1c(C(=O)N2CC[C@H](N(C)C)C2)nc(-c2ccc(C#N)c(F)c2)n1-c1ccc2nn(C)cc2c1`, the inhibition at 10 µM at hERG (KCNH2) was determined as 30%. In addition, the exposure AUC(0-t) at 6 h in data set [3] is 760 ng·h/mL. The “inhibition (INH)” value in data set [4] and in data set [5] was “Active” each time.

`CN[C@H]1CCN(C(=O)c2nc(-c3ccc(C#N)c(F)c3)n(-c3cc4cn(C)nc4cc3F)c2C)C1` showed an inhibition at 10 µM at hERG (KCNH2) of 22%. Besides, the “inhibition (INH)” value in data set [4] and in data set [5] was “Active” throughout.

Turning to `Cc1c(C(=O)N2CC[C@H](N(C)C)C2)nc(-c2ccc(C#N)c(F)c2)n1-c1cc(F)c2nn(C)cc2c1`, on hERG (KCNH2), 10 µM produced 17% inhibition. In data set [3], the AUC(0-t) at 6 h was found to be 660 ng·h/mL. The “inhibition (INH)” value in data set [4] and in data set [5] was “Active” in each case.

Turning to `CN[C@@H]1CCCN(C(=O)c2nc(-c3ccc(C#N)c(F)c3)n(-c3ccc4nn(C)c(Cl)c4c3)c2C)C1`, the inhibition at 10 µM at hERG (KCNH2) stood at 34%. For the same compound, the exposure AUC(0-t) at 6 h in data set [3] was determined as 410 ng·h/mL. The “inhibition (INH)” value in data set [4] and in data set [5] was “Active” throughout.

At hERG (KCNH2), `Cc1c(C(=O)N2CCC[C@@H](N)C2)nc(-c2ccc(C#N)c(F)c2)n1-c1ccc2nn(C)cc2c1` registered an inhibition at 10 µM below 10%. In data set [3], this compound showed an AUC(0-t) at 6 h of 25 ng·h/mL.

Turning to `Cc1c(C(=O)N2CC[C@H](N)C2)nc(-c2ccc(C#N)c(F)c2)n1-c1ccc2nn(C)cc2c1`, at 10 µM the inhibition against hERG (KCNH2) was 12%. Further, the AUC(0-t) at 6 h in data set [3] is 80 ng·h/mL. Also, the “inhibition (INH)” value in data set [4] and in data set [5] was “Active” throughout.

With `Cc1ccc(-n2c(-c3ccc(C#N)cc3)nc(C(=O)N3CCC[C@@H](N)C3)c2C)cc1`, the inhibition at 10 µM against hERG (KCNH2) was 94%.
